Measured values reported in PubChem BioAssay AID2423 (Broad Institute, 2010).
Results filed as inconclusive are left out. Activity calls are given as the source filed them. How the calls were made is not given here.

tested on: C. albicans CaCi-8 + fluconazole, Alamar Blue growth, 48 h; assay: resistant C. albicans growth inhibition with fluconazole, dose response, CaCi-8 strain, Alamar Blue fluorescence (AID 2423)

Question: With `COc1ccc(-[n+]2c(-c3ccccc3)cc(-c3ccc(C)cc3)cc2-c2ccccc2)cc1` as the compound, how does the EC50 read?
Answer: > 15000 nM (inactive)

Question: With `O=C(N/N=C/c1c(O)ccc2ccccc12)c1cccnc1` as the compound, how does the EC50 read?
Answer: 1430 nM

Question: For `O=[N+]([O-])c1ccc(N/N=C/c2ccc(O)c(O)c2O)c(S(=O)(=O)N2CCOCC2)c1`, which EC50 is on record?
Answer: 8260 nM

Question: With `COc1ccccc1N1CCN(C(=O)c2cc3cc(Cl)ccc3[nH]2)CC1` as the compound, how does the EC50 read?
Answer: > 15000 nM (inactive)

Question: How did the EC50 turn out when `CCC(C)OC(=O)C[N+](C)(C)CCOC1CC2CCC1(C)C2(C)C` (configuration not stated) was run?
Answer: 6590 nM

Question: For `Cc1ccc(C(c2cc(Cl)c3cccnc3c2O)N2CCN(C)CC2)cc1` (configuration not stated), which EC50 is on record?
Answer: 704 nM

Question: `CCN=c1scc(-c2ccc3c(c2)NC(=O)CO3)n1N=C1CCCC1` was tested. Which EC50 did it give?
Answer: 7220 nM

Question: With `COc1cccc(/C=N/NC(=O)c2c(C)nc3ccc(Cl)cn23)c1O` as the compound, how does the EC50 read?
Answer: 1710 nM

Question: For `COc1cc(/C=C(\C#N)c2nc3ccccc3[nH]2)ccc1O`, which EC50 is on record?
Answer: 1490 nM

Question: How did the EC50 turn out when `CCOC(=O)C1CCN(C(=O)c2ccc3c(=O)n4nc(Nc5cc(C)ccc5C)sc4nc3c2)CC1` was run?
Answer: 400 nM

Question: For `O=C(Oc1c(Cl)cc(Cl)c2cccnc12)c1cccs1`, which EC50 is on record?
Answer: 443 nM

Question: `O=C(Nc1ccc(N=Nc2ccccc2)c(NC(=O)C2CCCO2)c1)C1CCCO1` (configuration not stated) was tested. Which EC50 did it give?
Answer: 4770 nM

Question: `CCCCC(=O)NC(c1ccco1)c1cc(Cl)c2cccnc2c1O` (configuration not stated) was tested. Which EC50 did it give?
Answer: 625 nM

Question: `C=CCn1c(N)nc2ccccc21` was tested. Which EC50 did it give?
Answer: 2720 nM

Question: Which EC50 does the source give for `COc1ccc(/C=C2\N=C(SC)NC2=O)cc1` here?
Answer: 3750 nM

Question: `COc1ccc2c(c1OC)C(=O)N1N=C(c3ccc(O)cc3)CC21` (configuration not stated) was tested. Which EC50 did it give?
Answer: > 15000 nM (inactive)

Question: With `CCOC(=O)C(=Cc1cc(=O)c(OC)co1)C(=O)OCC` as the compound, how does the EC50 read?
Answer: 331 nM

Question: Which EC50 does the source give for `C/C(=N\NC(=O)CCC(=O)Nc1ccc(C)c(C)c1)C1CC1` here?
Answer: > 15000 nM (inactive)

Question: For `CCCS(=O)(=O)c1nnnn1-c1cccc(OC)c1`, which EC50 is on record?
Answer: > 15000 nM (inactive)

Question: Which EC50 does the source give for `Cc1ccc(C)c(SCC(=O)Nc2nnc(-c3ccccc3)o2)c1` here?
Answer: 2240 nM

Question: For `Cc1ccc(S(=O)(=O)/N=C(/c2ccccc2)N2CCOCC2)c(C)c1`, which EC50 is on record?
Answer: > 16000 nM (inactive)

Question: For `O=C(/C=C\c1ccc(-c2cccc([N+](=O)[O-])c2)o1)N1CCOCC1`, which EC50 is on record?
Answer: 3100 nM

Question: With `Cc1c(N=NC2=C(O)CC(C)(C)CC2=O)c(=O)n(-c2ccccc2)n1C` as the compound, how does the EC50 read?
Answer: 14000 nM

Question: `O=C(CN1CCCc2ccccc21)N/N=C/c1c(O)ccc2ccccc12` was tested. Which EC50 did it give?
Answer: 1200 nM

Question: `Cc1nn(-c2ccccc2)c(C)c1C(=O)Nc1nnc(-c2ccco2)o1` was tested. Which EC50 did it give?
Answer: 421 nM

Question: Which EC50 does the source give for `Cc1ccc(C(=O)NC(=S)NNC(=O)CC#N)cc1` here?
Answer: > 15000 nM (inactive)

Question: How did the EC50 turn out when `O=C(O)c1cnc(-c2ccccc2)nc1Sc1ccc(Cl)cc1` was run?
Answer: > 15000 nM (inactive)

Question: How did the EC50 turn out when `Nc1nnnn1/N=C/c1cccc(Oc2ccccc2)c1` was run?
Answer: 3450 nM

Question: How did the EC50 turn out when `O=C(CCS(=O)(=O)c1ccccc1)Nc1nnc(C(F)(F)F)s1` was run?
Answer: > 16000 nM (inactive)

Question: For `C[C@]12CCC3[C@@H](CC[C@H]4C[C@@H](O)CC[C@]34C)C1CCC2=O` (some centres not stated), which EC50 is on record?
Answer: 1480 nM

Question: How did the EC50 turn out when `CCCc1ccc(C2C3=C(CC(C)(C)CC3=O)NC3=C2C(=O)c2ccccc23)cc1` (configuration not stated) was run?
Answer: 1780 nM

Question: `CCOc1cc(S(=O)(=O)NCc2ccccc2)c(OCC)cc1-n1cnnn1` was tested. Which EC50 did it give?
Answer: > 15000 nM (inactive)

Question: How did the EC50 turn out when `O=C1CC(c2ccccc2)CC(=NCCO)/C1=C(\O)CCCN1C(=O)c2ccccc2C1=O` (configuration not stated) was run?
Answer: > 15000 nM (inactive)

Question: Which EC50 does the source give for `NC1=NC(=O)C(Cc2cccc(Cl)c2Cl)S1` (configuration not stated) here?
Answer: > 16000 nM (inactive)

Question: `O=C(Nc1ccccc1)OCN1C(=O)c2ccccc2C1=O` was tested. Which EC50 did it give?
Answer: > 15000 nM (inactive)

Question: Which EC50 does the source give for `Nc1c(S(=O)(=O)c2cccc(Cl)c2)c2nc3ccccc3nc2n1/N=C/c1ccc(O)c(O)c1` here?
Answer: 6480 nM

Question: Which EC50 does the source give for `O=c1oc2ccccc2c(O)c1Cc1cc(Cl)c2cccnc2c1O` here?
Answer: 2740 nM

Question: Which EC50 does the source give for `COc1cccc(C(=O)Nc2nnc(-c3ccc(F)cc3)o2)c1` here?
Answer: 1690 nM

Question: Which EC50 does the source give for `CCN(CC)c1ccc(/C=N/NC(=O)c2nnn(-c3nonc3N)c2C(C)C)c(O)c1` here?
Answer: 472 nM

Question: Which EC50 does the source give for `CC(C)(C)c1ccc(OCc2ccc(C(=O)N/N=C/c3ccc(O)c(O)c3)cc2)cc1` here?
Answer: 3080 nM

Question: How did the EC50 turn out when `Oc1ccccc1C(Nc1nccs1)c1ccc2cccnc2c1O` (configuration not stated) was run?
Answer: 2730 nM

Question: `O=C(N/N=C/c1sc(N2CCCCC2)nc1-c1cccs1)c1cccnc1` was tested. Which EC50 did it give?
Answer: 1470 nM

Question: How did the EC50 turn out when `Cc1cccc(Sc2nc(-c3ccccc3)ncc2C(=O)O)c1` was run?
Answer: > 15000 nM (inactive)

Question: How did the EC50 turn out when `CCCCCc1ccc(OCCCC[n+]2ccc(C)cc2)c(CCCCC)c1` was run?
Answer: > 16000 nM (inactive)

Question: How did the EC50 turn out when `CCCC(=O)NC(c1cccs1)c1cc(Cl)c2cccnc2c1O` (configuration not stated) was run?
Answer: 729 nM

Question: With `Cc1nnc(NC(=O)c2ccc(S(=O)(=O)N(C)Cc3ccccc3)cc2)o1` as the compound, how does the EC50 read?
Answer: 808 nM

Question: `CCCCN(C)S(=O)(=O)c1ccc(C(=O)Nc2nnc(-c3ccco3)o2)cc1` was tested. Which EC50 did it give?
Answer: > 16000 nM (inactive)

Question: For `O=C(Nc1nnc(-c2ccco2)o1)c1cccc(Cl)c1`, which EC50 is on record?
Answer: 859 nM

Question: With `C/C(=N\NC(=O)c1cc(-c2cccs2)nc2ccccc12)c1ccccn1` as the compound, how does the EC50 read?
Answer: 1820 nM

Question: With `FC(F)(F)COc1nc(OCC(F)(F)F)nc(N2CCN(c3ccccc3)CC2)n1` as the compound, how does the EC50 read?
Answer: > 16000 nM (inactive)

Question: Which EC50 does the source give for `CCOC(=O)c1ccc(NC(=O)Nc2ccn(C)n2)cc1` here?
Answer: 1510 nM

Question: For `Nc1nonc1-n1nnc(C(=O)N/N=C/c2cc(Br)ccc2O)c1CNc1ccccc1`, which EC50 is on record?
Answer: 634 nM

Question: How did the EC50 turn out when `O=C(C[n+]1ccccc1)N/N=C/c1cccs1` was run?
Answer: > 15000 nM (inactive)

Question: Which EC50 does the source give for `CC(C)c1ccc2c(c1)C(N1CCNCC1)Cc1ccc(F)cc1S2` (configuration not stated) here?
Answer: 7170 nM

Question: Which EC50 does the source give for `CC(=O)c1cccc(NC(=S)NC(=O)c2ccc(C)cc2)c1` here?
Answer: 3850 nM

Question: `CC(=O)O/N=C/c1c(N2CCOCC2)n(C)c2ccccc12` was tested. Which EC50 did it give?
Answer: 403 nM

Question: For `CC(C)c1ccc2oc(-c3ccc(NC(=O)c4ncn[nH]4)cc3)nc2c1`, which EC50 is on record?
Answer: > 16000 nM (inactive)
